In ChEMBL document CHEMBL1201862, “PubChem BioAssay data set” (2004) one finds AC50, IC50 and EC50 data, which are given here for 17 molecules.

The source made the active and inactive calls.

Experiment [1] is described as follows: reduced cellular PGC1a acetyl-lysine signal – cell-based, cherry-picked samples, dose response (AID 720514).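 Note: potency may reflect raised or lowered acetylation signal.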 The class given is functional.
The target in experiment [2] is T1, Leucine aminopeptidase (Plasmodium falciparum 3D7, UniProt Q8IL11).
T1 sequence (Q8IL11 whole entry): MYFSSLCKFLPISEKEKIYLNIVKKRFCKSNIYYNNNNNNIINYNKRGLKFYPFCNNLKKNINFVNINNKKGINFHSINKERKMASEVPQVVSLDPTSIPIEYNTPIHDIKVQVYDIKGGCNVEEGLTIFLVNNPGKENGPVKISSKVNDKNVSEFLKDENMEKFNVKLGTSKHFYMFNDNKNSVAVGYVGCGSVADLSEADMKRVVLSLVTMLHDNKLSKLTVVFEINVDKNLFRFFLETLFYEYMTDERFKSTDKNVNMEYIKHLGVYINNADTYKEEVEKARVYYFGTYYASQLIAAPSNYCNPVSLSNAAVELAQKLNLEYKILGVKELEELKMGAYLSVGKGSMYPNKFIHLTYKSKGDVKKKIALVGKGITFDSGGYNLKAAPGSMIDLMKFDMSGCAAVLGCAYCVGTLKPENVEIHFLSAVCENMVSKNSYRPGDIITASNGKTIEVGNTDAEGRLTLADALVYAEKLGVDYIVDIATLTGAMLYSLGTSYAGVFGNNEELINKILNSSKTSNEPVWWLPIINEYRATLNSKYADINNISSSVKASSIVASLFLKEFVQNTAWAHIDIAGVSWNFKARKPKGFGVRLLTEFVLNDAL
The experiment is described as follows: P. falciparum M17LAP inhibitors, primary screen, biochemical, fluorogenic H-Leu-NHMec substrate, 1536-well (AID 1619). The class given is functional.

The target of experiment [3] is T2, Small ubiquitin-related modifier 1 (Homo sapiens, UniProt P63165). The experiment is described as follows: SUMO1 protein interaction blockers, potency – biochemical, fluorescence polarization, uHTS hits, dose response (AID 624382). The class given is functional. The following applies: read-out: IC50_Mean.
T2 sequence (P63165 whole entry): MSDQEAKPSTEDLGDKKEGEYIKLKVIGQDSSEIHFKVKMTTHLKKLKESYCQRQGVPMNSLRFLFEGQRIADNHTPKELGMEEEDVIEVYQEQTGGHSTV
In experiment [4] the target is T2, Small ubiquitin-related modifier 1. The experiment is described as follows: SUMO1 protein-protein binding blockers, potency – biochemical, FRET, dose response (AID 624383). The conditions noted are these: read-out: IC50_Mean. The format is functional.
Experiment [5] concerns the target Cytochrome P450 2C19 (Homo sapiens, UniProt P33261). The experiment is described as follows: Cytochrome panel assay with activity outcomes. Panel member name: p450-cyp2c19 Compounds with AC50 equal or less than 10 uM are considered active. The following applies: read-out: AC50. The class given is functional.
The target of experiment [6] is Cytochrome P450 2C9 (Homo sapiens, UniProt P11712).
Sequence of Cytochrome P450 2C9 (P11712 whole entry): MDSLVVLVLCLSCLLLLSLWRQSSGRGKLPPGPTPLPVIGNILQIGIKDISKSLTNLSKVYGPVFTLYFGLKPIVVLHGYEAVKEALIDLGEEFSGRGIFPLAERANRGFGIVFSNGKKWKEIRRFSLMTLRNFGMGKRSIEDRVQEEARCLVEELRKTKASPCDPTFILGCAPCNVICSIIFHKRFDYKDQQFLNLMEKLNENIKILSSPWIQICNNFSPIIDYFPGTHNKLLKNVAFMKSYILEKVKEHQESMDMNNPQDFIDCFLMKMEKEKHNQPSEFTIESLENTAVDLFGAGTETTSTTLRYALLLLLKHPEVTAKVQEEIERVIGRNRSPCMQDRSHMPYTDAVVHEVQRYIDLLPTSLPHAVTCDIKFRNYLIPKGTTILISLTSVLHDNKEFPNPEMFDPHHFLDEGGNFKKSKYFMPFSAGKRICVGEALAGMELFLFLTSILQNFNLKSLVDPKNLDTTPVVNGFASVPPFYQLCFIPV
Experiment [7] addresses T3, Microphthalmia-associated transcription factor (Homo sapiens, UniProt O75030).
T3 sequence (O75030 whole entry): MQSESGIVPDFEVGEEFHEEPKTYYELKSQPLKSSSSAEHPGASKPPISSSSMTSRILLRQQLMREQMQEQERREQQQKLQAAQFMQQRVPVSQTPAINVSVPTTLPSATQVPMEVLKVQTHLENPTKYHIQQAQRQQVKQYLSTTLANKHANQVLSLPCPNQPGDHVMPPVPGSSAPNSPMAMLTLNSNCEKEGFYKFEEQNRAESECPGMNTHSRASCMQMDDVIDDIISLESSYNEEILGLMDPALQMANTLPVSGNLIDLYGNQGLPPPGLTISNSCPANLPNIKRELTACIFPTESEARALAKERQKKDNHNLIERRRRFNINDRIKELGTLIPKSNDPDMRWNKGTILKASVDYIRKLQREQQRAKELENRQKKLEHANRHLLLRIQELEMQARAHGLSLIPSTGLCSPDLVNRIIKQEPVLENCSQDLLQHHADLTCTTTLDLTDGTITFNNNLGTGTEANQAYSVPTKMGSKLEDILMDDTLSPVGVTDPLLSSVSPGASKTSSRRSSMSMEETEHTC
The experiment is described as follows: reducers of TRPM1 reporter luminescence, concentration series – cell-based, SK-MEL-5, cherry-picked, set 3, MITF inhibitor project, dose response (AID 493073).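 Note: SK-MEL-5 melanoma cells with luciferase driven by the MITF target TRPM1 promoter.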 The format is functional.

The target of experiment [8] is Cytochrome P450 2D6 (Homo sapiens, UniProt P10635).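 Note: CYP2D6 member of a cytochrome P450 panel assay.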
Sequence of Cytochrome P450 2D6 (P10635 whole entry): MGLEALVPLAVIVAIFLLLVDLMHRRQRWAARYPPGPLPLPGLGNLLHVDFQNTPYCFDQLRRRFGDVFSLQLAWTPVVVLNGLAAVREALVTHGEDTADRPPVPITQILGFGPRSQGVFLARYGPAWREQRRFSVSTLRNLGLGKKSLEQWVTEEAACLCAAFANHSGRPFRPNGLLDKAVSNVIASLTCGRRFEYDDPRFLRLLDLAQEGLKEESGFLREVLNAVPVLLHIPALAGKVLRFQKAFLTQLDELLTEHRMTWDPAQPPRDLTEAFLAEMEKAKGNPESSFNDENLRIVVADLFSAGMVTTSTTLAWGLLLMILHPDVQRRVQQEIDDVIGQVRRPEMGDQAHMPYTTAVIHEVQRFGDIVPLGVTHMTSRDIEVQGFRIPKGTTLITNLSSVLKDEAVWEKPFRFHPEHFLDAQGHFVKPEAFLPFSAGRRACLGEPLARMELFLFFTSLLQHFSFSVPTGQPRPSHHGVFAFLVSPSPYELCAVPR
Experiment [9] addresses Cytochrome P450 3A4 (Homo sapiens, UniProt P08684).
A short description of experiment [10]: blockade of melanocortin 4 receptor signaling – cell-based, plate reader, cherry pick, counter-screen for LGR2 antagonist project, dose response (AID 743444).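 Note: transfected HEK 293 cells stimulated with alpha-MSH peptide; potency of inhibitors of the alpha-MSH evoked signal.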 The class given is functional.
A short description of experiment [11]: blockers of bursicon-stimulated LGR2 cAMP reporter – cell-based, HEK293, CRE-luciferase reporter, cherry pick, set 2, dose response (AID 743343).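 Note: transfected cells were stimulated with diluted bursicon conditioned medium after compound addition.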 The class given is functional. A general note: In a reporter assay the amount or activity of a reporter protein is the signal.
Experiment [12] has as its target T4, RNA-binding protein pos-1 (Caenorhabditis elegans, UniProt G5EF15).
T4 sequence (G5EF15 whole entry): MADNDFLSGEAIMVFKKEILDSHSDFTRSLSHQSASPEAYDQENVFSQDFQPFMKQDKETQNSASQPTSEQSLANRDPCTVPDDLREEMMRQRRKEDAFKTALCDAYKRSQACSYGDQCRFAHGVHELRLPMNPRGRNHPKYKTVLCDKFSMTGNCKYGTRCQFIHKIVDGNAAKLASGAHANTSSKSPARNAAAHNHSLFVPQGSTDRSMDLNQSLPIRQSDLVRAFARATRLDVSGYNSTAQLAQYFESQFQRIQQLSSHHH
The experiment is described as follows: disruptors of C. elegans POS-1 RNA interaction – biochemical, fluorescence polarization, dose response (AID 1964).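 Note: purified POS-1 fused to maltose binding protein made in E. coli; potency of compounds blocking POS-1 binding to fluorescent RNA.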

The target of experiment [13] is T5, Zinc finger protein mex-5 (Caenorhabditis elegans, UniProt Q9XUB2).
T5 sequence (Q9XUB2 whole entry): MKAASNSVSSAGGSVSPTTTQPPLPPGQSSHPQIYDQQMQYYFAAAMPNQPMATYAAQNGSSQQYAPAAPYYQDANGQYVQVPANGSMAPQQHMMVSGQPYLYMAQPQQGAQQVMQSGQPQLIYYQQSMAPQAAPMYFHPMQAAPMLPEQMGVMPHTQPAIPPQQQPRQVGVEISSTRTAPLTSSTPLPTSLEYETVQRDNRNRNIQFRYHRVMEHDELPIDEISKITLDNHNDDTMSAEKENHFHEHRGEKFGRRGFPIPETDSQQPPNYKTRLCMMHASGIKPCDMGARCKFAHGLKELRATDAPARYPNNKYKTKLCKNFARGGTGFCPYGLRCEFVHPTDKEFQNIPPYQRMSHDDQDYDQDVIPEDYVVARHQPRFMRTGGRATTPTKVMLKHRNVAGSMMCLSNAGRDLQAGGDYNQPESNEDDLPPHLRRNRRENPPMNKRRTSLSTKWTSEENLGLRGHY
The experiment is described as follows: potency of MEX-5 RNA-binding blockers – biochemical, C. elegans, fluorescence polarization, dose response (AID 1960).

Experiment [14] deals with Large T antigen (Simian virus 40, UniProt P03070). The format is functional, Betapolyomavirus macacae.
Sequence of Large T antigen (P03070 whole entry): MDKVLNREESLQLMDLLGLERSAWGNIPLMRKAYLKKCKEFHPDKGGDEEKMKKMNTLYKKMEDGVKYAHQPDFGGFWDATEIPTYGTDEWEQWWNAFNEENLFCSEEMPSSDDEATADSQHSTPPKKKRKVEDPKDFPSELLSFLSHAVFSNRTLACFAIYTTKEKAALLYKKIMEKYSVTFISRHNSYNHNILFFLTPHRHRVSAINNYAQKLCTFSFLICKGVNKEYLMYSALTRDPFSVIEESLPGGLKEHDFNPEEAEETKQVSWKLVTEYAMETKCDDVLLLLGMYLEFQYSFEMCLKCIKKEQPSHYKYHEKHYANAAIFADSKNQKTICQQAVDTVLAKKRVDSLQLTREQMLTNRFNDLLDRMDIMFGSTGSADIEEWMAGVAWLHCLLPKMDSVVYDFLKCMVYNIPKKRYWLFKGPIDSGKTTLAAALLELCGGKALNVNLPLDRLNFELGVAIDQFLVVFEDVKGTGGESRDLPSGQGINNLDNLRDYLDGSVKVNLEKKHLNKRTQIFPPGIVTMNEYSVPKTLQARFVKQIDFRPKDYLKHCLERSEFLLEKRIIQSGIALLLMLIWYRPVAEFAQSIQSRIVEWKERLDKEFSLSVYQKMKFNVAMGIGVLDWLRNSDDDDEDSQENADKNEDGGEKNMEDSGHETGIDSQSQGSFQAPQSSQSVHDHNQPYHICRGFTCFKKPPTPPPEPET
Experiment [15] deals with T6, Replicative DNA helicase DnaB (Mycobacterium tuberculosis, UniProt P9WMR3).
T6 sequence (P9WMR3 whole entry): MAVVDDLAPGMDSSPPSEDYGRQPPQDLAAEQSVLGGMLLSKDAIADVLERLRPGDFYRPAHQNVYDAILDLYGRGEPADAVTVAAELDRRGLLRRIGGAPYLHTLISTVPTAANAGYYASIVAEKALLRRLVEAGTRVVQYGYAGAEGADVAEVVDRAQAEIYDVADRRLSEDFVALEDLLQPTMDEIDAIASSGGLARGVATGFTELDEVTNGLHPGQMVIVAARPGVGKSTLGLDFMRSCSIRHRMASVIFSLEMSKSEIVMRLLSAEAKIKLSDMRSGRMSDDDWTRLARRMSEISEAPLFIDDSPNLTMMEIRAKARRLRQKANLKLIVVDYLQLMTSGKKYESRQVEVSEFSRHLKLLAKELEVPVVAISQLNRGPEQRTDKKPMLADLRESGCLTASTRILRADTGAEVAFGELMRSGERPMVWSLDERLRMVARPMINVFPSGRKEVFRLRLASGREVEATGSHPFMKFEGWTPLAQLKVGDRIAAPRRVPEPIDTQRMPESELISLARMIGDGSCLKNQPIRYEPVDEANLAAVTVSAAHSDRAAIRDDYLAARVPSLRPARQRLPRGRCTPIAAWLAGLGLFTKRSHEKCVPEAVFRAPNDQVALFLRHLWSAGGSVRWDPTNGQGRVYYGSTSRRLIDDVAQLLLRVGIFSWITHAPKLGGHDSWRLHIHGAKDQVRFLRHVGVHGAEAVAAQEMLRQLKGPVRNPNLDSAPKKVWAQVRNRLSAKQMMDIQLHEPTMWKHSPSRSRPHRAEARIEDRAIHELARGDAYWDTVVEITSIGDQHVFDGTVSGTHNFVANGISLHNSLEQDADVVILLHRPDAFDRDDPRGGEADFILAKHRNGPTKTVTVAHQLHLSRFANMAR
The experiment is described as follows: DnaB intein splicing inhibitors, dose response, biochemical, cell-free fluorescence (AID 449749). The format is functional.

The target of experiment [16] is T7, Protein RecA (Mycobacterium tuberculosis, UniProt P9WHJ3).
T7 sequence (P9WHJ3 whole entry): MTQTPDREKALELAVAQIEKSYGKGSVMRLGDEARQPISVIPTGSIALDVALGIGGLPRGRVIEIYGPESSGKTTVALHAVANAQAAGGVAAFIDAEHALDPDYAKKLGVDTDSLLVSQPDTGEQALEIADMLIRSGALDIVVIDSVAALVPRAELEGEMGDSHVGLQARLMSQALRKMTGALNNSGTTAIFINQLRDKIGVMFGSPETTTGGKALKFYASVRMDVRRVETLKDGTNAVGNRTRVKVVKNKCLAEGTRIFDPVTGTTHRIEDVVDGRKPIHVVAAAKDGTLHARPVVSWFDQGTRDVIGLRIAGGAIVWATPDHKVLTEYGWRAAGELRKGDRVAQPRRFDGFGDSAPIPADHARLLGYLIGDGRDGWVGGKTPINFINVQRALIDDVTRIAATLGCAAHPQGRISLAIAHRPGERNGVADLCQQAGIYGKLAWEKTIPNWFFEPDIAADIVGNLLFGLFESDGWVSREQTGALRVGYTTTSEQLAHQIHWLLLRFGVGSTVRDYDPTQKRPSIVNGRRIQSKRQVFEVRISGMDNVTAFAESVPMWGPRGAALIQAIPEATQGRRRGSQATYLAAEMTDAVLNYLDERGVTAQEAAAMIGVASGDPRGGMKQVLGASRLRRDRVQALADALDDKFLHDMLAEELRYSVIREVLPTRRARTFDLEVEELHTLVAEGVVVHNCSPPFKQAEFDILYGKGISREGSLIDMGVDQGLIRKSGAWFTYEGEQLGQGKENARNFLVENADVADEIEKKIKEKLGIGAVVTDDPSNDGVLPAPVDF
The experiment is described as follows: Fluorescence Cell-Free Homogeneous Dose Retest to Identify Inhibitors of RecA-Intein Splicing Activity. [Related pubchem assays (depositor defined):AID2097, AID2223, AID489010, AID492950]. The class given is functional.

Sequence of Cytochrome P450 2C19 (P33261 whole entry): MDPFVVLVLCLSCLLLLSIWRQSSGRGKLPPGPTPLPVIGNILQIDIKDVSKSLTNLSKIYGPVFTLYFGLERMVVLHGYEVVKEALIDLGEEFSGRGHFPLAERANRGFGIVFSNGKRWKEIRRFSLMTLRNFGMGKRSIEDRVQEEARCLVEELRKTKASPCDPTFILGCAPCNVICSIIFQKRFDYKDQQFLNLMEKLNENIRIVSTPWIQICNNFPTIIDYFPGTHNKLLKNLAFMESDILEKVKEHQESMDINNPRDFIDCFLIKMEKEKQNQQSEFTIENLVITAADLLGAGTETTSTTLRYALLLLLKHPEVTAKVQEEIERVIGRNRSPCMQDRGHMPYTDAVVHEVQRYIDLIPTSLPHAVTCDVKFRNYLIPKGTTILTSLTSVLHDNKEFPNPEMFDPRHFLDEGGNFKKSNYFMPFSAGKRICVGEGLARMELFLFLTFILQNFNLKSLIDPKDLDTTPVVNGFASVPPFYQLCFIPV
Sequence of Cytochrome P450 3A4 (P08684 whole entry): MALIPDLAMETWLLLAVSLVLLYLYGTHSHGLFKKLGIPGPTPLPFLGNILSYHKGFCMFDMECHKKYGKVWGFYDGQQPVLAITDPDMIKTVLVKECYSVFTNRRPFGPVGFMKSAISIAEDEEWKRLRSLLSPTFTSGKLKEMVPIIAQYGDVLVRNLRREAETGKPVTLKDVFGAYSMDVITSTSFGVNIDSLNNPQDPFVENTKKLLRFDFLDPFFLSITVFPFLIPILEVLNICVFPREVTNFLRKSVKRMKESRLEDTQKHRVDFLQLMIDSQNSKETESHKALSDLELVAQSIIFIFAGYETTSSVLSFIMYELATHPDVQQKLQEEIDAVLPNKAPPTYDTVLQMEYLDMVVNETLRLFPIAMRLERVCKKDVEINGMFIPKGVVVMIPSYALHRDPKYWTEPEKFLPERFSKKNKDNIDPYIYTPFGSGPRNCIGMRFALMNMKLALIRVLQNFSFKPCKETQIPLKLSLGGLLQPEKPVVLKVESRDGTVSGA

With `C[C@@H]1CN([C@@H](C)CO)S(=O)(=O)c2ccc(C#CC3CCCCC3)cc2O[C@H]1CN(C)Cc1cccnc1`, the AC50 in [1] was 15.1 µM (active).
For `O=C(Nc1c(C(=O)O)oc2ccc(Br)cc12)c1ccccc1`, in experiment [2], the IC50 is 5.42 µM (active).
On to `CC(CC(=O)OCC(=O)Nc1ccc2[nH]c(O)nc2c1)c1ccccc1` (stereo not given), for which the IC50 in [3] is > 66.6 µM (inactive); in experiment [4] it was 21 µM (inactive).
Turning to `O=C(N/N=C/c1ccncc1)c1cc2c(ccc3ccccc32)o1`, the IC50 in experiment [3] is > 66.6 µM (inactive); in experiment [4] it was 100 µM (inactive). In addition, the AC50 in experiment [5] was 8.91 µM (inconclusive); in [6], 0.794 µM (inconclusive).
For `O=C(NCc1ccccc1)C(=O)Nc1cccc(C(=O)O)c1`, the AC50 in experiment [7] was 4.85 µM (active).
Still for that read-out and setting: in the case of `CCC(=O)Nc1cc2nn(-c3ccc(C)cc3)nc2cc1C` it was 4.15 µM (active); in that of `COc1cc(SC)ccc1C(=O)Nc1ccc(Br)cn1`, 7.36 µM (active).
In the case of `CCC(CO)Oc1cc(NC(=O)c2ccccc2F)c2ncn(C(C)C)c2c1` (stereo not given), the IC50 in [3] was > 66.6 µM (inactive); in experiment [4], 12.2 µM (active).
As to `COc1ccccc1NC(=O)CC1COc2ccccc2O1` (stereo not given), the results for the AC50 in [8], in experiment [9] and in experiment [6] were 12.6 µM (inconclusive), 14.1 µM (inconclusive) and 5.62 µM (inconclusive), respectively. In experiment [2], the IC50 is 5.29 µM (active).
Take `O=C(O)C1CCCCC1C(=O)Nc1cccc(Cl)c1Cl` (stereo not given): the IC50 in [2] was 13.5 µM (active).
With `Cc1cc(C(=O)Nc2ccc(N3CCCCC3)cc2)no1`, the AC50 in experiment [10] is 13.1 µM (active); in experiment [11], 13.3 µM (active).
Consider `O=C(O)C1CCCCC1C(=O)Nc1ccc2c(c1)OCCO2` (stereo not given), for which the IC50 in experiment [2] is 32.9 µM (active).
For `COc1cc(C2C(C#N)=C(N)Oc3[nH]nc(-c4cccnc4)c32)cc(Br)c1O` (stereo not given), the EC50 in experiment [12] was > 300 µM (not active); in experiment [13], > 300 µM (not active); in [16] it was 2.06 µM (active). Besides, in experiment [14], the IC50 is 57 µM (active). Besides, the AC50 in [15] is 5.65 µM (active).
Take `CC(=O)Nc1ccc(S(=O)(=O)N2CCn3cccc3C2C)cc1` (stereo not given): the AC50 in experiment [7] was 28.6 µM (active).
Turning to `COc1cc(CN2C[C@@H]3N[C@H](C2)[C@H]3c2ccc(-c3cccc(OC)c3)cc2)cc(OC)c1`, the half-maximal activity concentration (AC50) in experiment [1] is 24.5 µM (active).
`COc1cccc2c(=O)n(CC(=O)N3CCCCCC3)ccc12`: the IC50 in [2] was 17.6 µM (active).
Take `CCn1c(C)c(C)c2cc(C(=O)NCCN3CCOCC3)ccc21`: the concentration at half-maximal activity (AC50) in experiment [1] was 25.5 µM (active).

A word on the AC50: it is the concentration giving half of the maximal activity seen. The term EC50 denotes the concentration that produces a half-maximal response.
